Measurements from ChEMBL document CHEMBL1158815, “Sesquiterpene lactones from Centaurea spinosa and their antibacterial and cytotoxic activities” (2005).
≈ marks a conversion by molar mass, not a printed value. Calls of active or inactive are those of the source. The calls are words filed in the database; no cut-off is given here.

Experiments:
[1] = system: DLD-1; test: Cytotoxicity against human DLD1 cells at <40 uM after 48 hrs by SRB assay; assay type: functional, cell-based
[2] = system: Staphylococcus aureus; test: Antimicrobial activity against Staphylococcus aureus ATCC 6538 by microdilution method; assay type: functional
[3] = system: NCI-H460; test: Cytotoxicity against human H460 cells at <40 uM after 48 hrs by SRB assay; assay type: functional, cell-based
[4] = system: Escherichia coli; test: Antimicrobial activity against Escherichia coli ATCC 35218 by microdilution method; assay type: functional, organism-based
[5] = system: OVCAR-3; test: Cytotoxicity against human OVCAR-3 cells at <40 uM after 48 hrs by SRB assay; assay type: functional, cell-based
[6] = system: SF-268; test: Cytotoxicity against human SF268 cells at <40 uM after 48 hrs by SRB assay; assay type: functional, cell-based
[7] = system: SF-268; test: Cytotoxicity against human SF268 cells after 48 hrs by SRB assay; assay type: functional; conditions: SF-268, 48 h
[8] = system: Proteus mirabilis; test: Antimicrobial activity against Proteus mirabilis isolates by microdilution method; assay type: functional, organism-based
[9] = system: MCF7; test: Cytotoxicity against human MCF7 cells at <40 uM after 48 hrs by SRB assay; assay type: functional, cell-based
[10] = system: OVCAR-3; test: Cytotoxicity against human OVCAR-3 cells after 48 hrs by SRB assay; assay type: functional; conditions: OVCAR-3, 48 h
[11] = system: Pseudomonas aeruginosa; test: Antimicrobial activity against Pseudomonas aeruginosa ATCC 27853 by microdilution method; assay type: functional, organism-based
[12] = system: NCI-H460; test: Cytotoxicity against human H460 cells after 48 hrs by SRB assay; assay type: functional; conditions: NCI-H460, 48 h
[13] = system: DLD-1; test: Cytotoxicity against human DLD1 cells after 48 hrs by SRB assay; assay type: functional; conditions: DLD-1, 48 h
[14] = system: MCF7; test: Cytotoxicity against human MCF7 cells after 48 hrs by SRB assay; assay type: functional; conditions: MCF7, 48 h
[15] = system: Bacillus cereus; test: Antimicrobial activity against Bacillus cereus isolates by microdilution method; assay type: functional
[16] = system: Micrococcus luteus; test: Antimicrobial activity against Micrococcus flavus ATCC 10240 by microdilution method; assay type: functional
[17] = read-out: LC50 (the source's name)

| MIC [2] [µg/mL] | MIC [15] [µg/mL] | MIC [16] [µg/mL] | Compound | Activity [1] | Activity [3] | Activity [4] | Activity [5] | Activity [6] | GI50 [7] [µM] | Activity [8] | Activity [9] | GI50 [10] [µM] | Activity [11] | GI50 [14] [µM] | other results |
| --- | --- | --- | --- | --- | --- | --- | --- | --- | --- | --- | --- | --- | --- | --- | --- |
| 5 (≈ 12.2 µM) | – | – | C=C[C@]1(C)C[C@H](OC(=O)C(=C)[C@@H](O)CO)[C@@H](C(=C)C(=O)OC)[C@H](O)C1C(=C)CO (stereo partly drawn) | inactive | inactive | inactive | inactive | inactive | 37.6 | inactive | inactive | 31.9 | inactive | – | – |
| – | – | – | CC[C@]1(O)C[C@@H]2CN(CCc3c([nH]c4ccccc34)[C@@](C(=O)OC)(c3cc4c(cc3OC)N(C)[C@H]3[C@@](O)(C(=O)OC)[C@H](OC(C)=O)[C@]5(CC)C=CCN6CC[C@]43[C@@H]65)C2)C1 [VINBLASTINE] | – | – | – | – | – | < 0.01 | – | – | < 0.01 | – | < 0.01 | GI50 [12]: < 0.01 µM; TGI [12]: 0.35 µM; GI50 [13]: < 0.01 µM; TGI [13]: 2.44 µM; CC50 [13, 17]: 2.48 µM; TGI [14]: 1.6 µM; TGI [10]: < 0.01 µM; CC50 [10, 17]: 0.92 µM |
| 5 (≈ 12.7 µM) | 5 (≈ 12.7 µM) | 0.625 (≈ 1.58 µM) | C=C1C(=O)O[C@H]2[C@H]1[C@@H](OC(=O)C(=C)[C@@H](O)CO)C[C@]1(C)[C@@H]2[C@H](C=O)CC[C@H]1O | inactive | inactive | inactive | inactive | inactive | – | inactive | inactive | 36.4 | inactive | 31.7 | GI50 [12]: 32.4 µM |
| 5 (≈ 11.9 µM) | 1.25 (≈ 2.97 µM) | 5 (≈ 11.9 µM) | C=C1C(=O)O[C@@H]2/C=C(\CO)CC/C=C(\C)C[C@H](OC(=O)C(=C)[C@@H](O)COC(C)=O)[C@@H]12 | – | – | inactive | – | – | – | inactive | – | – | inactive | – | – |
| – | 1.25 (≈ 3.3 µM) | 5 (≈ 13.2 µM) | C=C1C(=O)O[C@@H]2/C=C(\CO)CC/C=C(\C)C[C@H](OC(=O)C(=C)[C@H](O)CO)[C@@H]12 [CNICIN] | inactive | inactive | inactive | inactive | inactive | – | inactive | inactive | 37.4 | inactive | 37.8 | – |
| 5 (≈ 8.6 µM) | 0.1 (≈ 0.172 µM) | 0.1 (≈ 0.172 µM) | CN[C@@H]1[C@H](O[C@H]2[C@H](O[C@H]3[C@H](O)[C@@H](O)[C@H](N=C(N)N)[C@@H](O)[C@@H]3N=C(N)N)O[C@@H](C)[C@]2(O)C=O)O[C@@H](CO)[C@H](O)[C@H]1O [STREPTOMYCIN] | – | – | – | – | – | – | – | – | – | – | – | – |
| 5 (≈ 12.7 µM) | – | 5 (≈ 12.7 µM) | C=C1C(=O)O[C@H]2[C@H]1[C@@H](OC(=O)C(=C)[C@@H](O)CO)C[C@]1(C)[C@@H]2[C@@H](C=O)CC[C@H]1O [MALACITANOLIDE] | – | – | inactive | – | – | – | inactive | – | – | inactive | – | – |
| 5 (≈ 13.2 µM) | 1.25 (≈ 3.3 µM) | 5 (≈ 13.2 µM) | C=C[C@]1(C)C[C@H](OC(=O)C(=C)[C@@H](O)CO)[C@H]2C(=C)C(=O)O[C@@H]2[C@H]1C(=C)CO | – | – | inactive | – | inactive | 29.3 | inactive | inactive | – | inactive | – | – |
| 5 (≈ 13.3 µM) | 1.25 (≈ 3.32 µM) | 0.625 (≈ 1.66 µM) | C=C[C@]1(C)C[C@H](OC(=O)C(=C)[C@@H](O)CO)[C@H]2C(=C)C(=O)O[C@@H]2[C@H]1C(=C)C=O | inactive | inactive | inactive | inactive | inactive | 7.7 | inactive | inactive | 4.7 | inactive | 10 | GI50 [12]: 37 µM; TGI [7]: 38 µM |
| 5 (≈ 11.9 µM) | 1.25 (≈ 2.97 µM) | 5 (≈ 11.9 µM) | C=C1C(=O)O[C@@H]2/C=C(\CO)CC/C=C(\C)C[C@H](OC(=O)/C(=C/COC(C)=O)CO)[C@@H]12 | – | – | inactive | – | – | – | inactive | – | – | inactive | – | – |
| 5 (≈ 11.5 µM) | – | 5 (≈ 11.5 µM) | C=C1C(=O)O[C@H]2[C@H]1[C@@H](OC(=O)C(=C)[C@@H](O)COC(C)=O)C[C@]1(C)[C@@H]2[C@@H](C=O)CC[C@H]1O | – | – | inactive | – | – | – | inactive | – | – | inactive | – | – |
| 3.5 (≈ 8.02 µM) | – | 0.437 (≈ 1 µM) | C=C1C(=O)O[C@@H]2[C@H]1[C@@H](OC(=O)/C(=C/COC(C)=O)CO)C[C@]1(C)[C@@H]2[C@@H](C=O)CC[C@H]1O | – | – | inactive | – | – | – | inactive | – | – | inactive | – | – |
